Laboratory results: patent US11046954B2, “Targeted protein degradation to attenuate adoptive T-cell therapy associated adverse inflammatory responses” (Dana-Farber Cancer Institute, Inc., priority 2015, dated 2021)

Key:
FKBP*-KRASG12V = experiment: Immunoblot of NIH3T3 cells expressing FKBP* fused to KRASG12V: degradation; type: cell-based; settings: 1 μM, 24 hours
Procedure: (§1) FIG. 19 is an immunoblot of NIH3T3 cells expressing KRASG12V allele fused to FKBP* in the N-terminus or C-terminus. Cells were treated with 500 nM dFKBP7 for the indicated time. Cells were harvested and immunoblotted to measure degradation of FKBP*-KRASG12V and downstream surrogates of KRAS signaling (e.g. pMEK and pAKT).
(§2) FIG. 20 is an immunoblot of NIH3T3 cells expressing FKBP* fused to the N-terminus of KRASG12V treated with luM of the indicated dFKBP heterobifunctional compounds for 24 hours. Cells were harvested and immunoblotted to measure degradation of FKBP*-KRASG12V and downstream surrogates of KRAS signaling (e.g. pMEK and pAKT).
as §2, with “21” for “20”, “with” for “with luM of”, “concentrations of dFKBP13” for “dFKBP heterobifunctional compounds”
(§3) FIG. 22 is an immunoblot of NIH3T3 cells expressing FKBP* fused to the N-terminus of KRASG12V treated with luM dFKBP13 for the indicated time. Cells were harvested and immunoblotted to measure degradation of FKBP*-KRASG12V and downstream surrogates of KRAS signaling (e.g. pMEK and pAKT).
(§4) Cells were treated with 500 nM dFKBP7 for the indicated time. Cells were harvested and immunoblotted to measure degradation of FKBP*-KRAS and downstream surrogates of KRAS signaling (e.g. pMEK and pAKT).
(§5) Western blotting of NIH3T3 cells expressing dTAG-KRASG12V were treated with 1 μM of the indicated dFKBP heterobifunctional compounds for 24 hours. Cells were harvested and immunoblotted to measure degradation of FKBP*-KRAS and downstream surrogates of KRAS signaling (e.g. pMEK and pAKT).
(§6) Western blotting of NIH3T3 cells expressing FKBP* fused to the N-terminus of KRAS treated with the indicated concentrations of dFKBP13 for 24 hours. Cells were harvested and immunoblotted to measure degradation of FKBP*-KRAS and downstream surrogates of KRAS signaling (e.g. pMEK and pAKT).
(§7) To evaluate the kinetic control of targeted degradation of dTAG-KRAS, dFKBP13 was administered by increased duration. Western blotting of NIH3T3 cells expressing FKBP* fused to the N-terminus of KRAS treated with 1 μM dFKBP13 for the indicated time. Cells were harvested and immunoblotted to measure degradation of FKBP*-KRAS and downstream surrogates of KRAS signaling (e.g. pMEK and pAKT).

[1] = test system: downstream surrogates of KRAS signaling (e.g. pMEK and pAKT); experiment: Immunoblot of NIH3T3 cells expressing FKBP*-KRASG12V: downstream KRAS signaling; type: cell-based; settings: NIH3T3 FKBP*-KRASG12V; 1 μM, 24 hours
Procedure: as §1, §2
as §3, with “21” for “22”, “the indicated concentrations of” for “luM”, “24 hours.” for “the indicated time.”
as §3, §4, §5, §6, §7

CC[C@H](C(=O)N1CCCC[C@H]1C(=O)O[C@H](CCc1ccc(OC)c(OC)c1)c1cccc(OCC(=O)NCCCCCCCCNC(=O)COc2cccc3c2C(=O)N(C2CCC(=O)NC2=O)C3=O)c1)c1cc(OC)c(OC)c(OC)c1 (some centres unmarked) [dFKBP9]
degradation of FKBP*-KRASG12V (FKBP*-KRASG12V): potent degradation | inhibition of downstream signaling (pMEK, pAKT) [1]: inhibition of downstream signaling
